In EP0818443B1, “Mercaptoketones and mercaptoalcohols, a process for their preparation and their use as inhibitors of matrix metalloproteinases” (American Cyanamid Company, priority 1996, dated 1998):

What was measured:
[1] = target: T1, human neutrophil gelatinase B (Homo sapiens, UniProt P14780); assay: Gelatinase inhibition in vitro (thiopeptide substrate, DTNB); assay type: biochemical
T1 construct: human neutrophil gelatinase B; from tissue; host or cells: human neutrophils
Procedure: The increase in OD405 is plotted and the slope of the line is calculated which represents the reaction rate.
The mean of the control rate is calculated and compared for statistical significance (p<0.05) with drug-treated rates using Dunnett's multiple comparison test.

gelatinase = gelatinase (Homo sapiens, UniProt P14780); assay: In vivo MMP inhibition (enzyme in implanted dialysis tubing); parameters: species or system rat (Sprague-Dawley) or mouse (CD-1)
Sequence of gelatinase (P14780 94-707): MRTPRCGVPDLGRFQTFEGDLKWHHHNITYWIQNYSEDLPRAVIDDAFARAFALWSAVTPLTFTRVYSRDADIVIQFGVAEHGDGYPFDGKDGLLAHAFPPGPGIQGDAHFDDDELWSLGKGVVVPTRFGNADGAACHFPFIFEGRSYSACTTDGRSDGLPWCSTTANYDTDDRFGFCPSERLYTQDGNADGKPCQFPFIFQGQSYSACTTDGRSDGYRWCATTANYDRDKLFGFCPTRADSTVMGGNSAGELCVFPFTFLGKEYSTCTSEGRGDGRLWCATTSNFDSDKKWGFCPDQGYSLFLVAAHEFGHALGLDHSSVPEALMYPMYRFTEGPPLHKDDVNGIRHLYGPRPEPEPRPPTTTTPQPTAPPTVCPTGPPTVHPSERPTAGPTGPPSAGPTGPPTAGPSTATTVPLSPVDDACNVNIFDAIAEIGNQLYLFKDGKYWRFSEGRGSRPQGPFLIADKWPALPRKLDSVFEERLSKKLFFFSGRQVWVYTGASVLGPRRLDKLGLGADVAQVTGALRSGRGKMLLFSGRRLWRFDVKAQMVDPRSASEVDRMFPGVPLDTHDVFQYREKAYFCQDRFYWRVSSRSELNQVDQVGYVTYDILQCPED
Procedure: A 2 cm piece of dialysis tubing (molecular weight cut-off 12-14,000, 10 mm flat width) containing matrix metalloproteinase enzyme (stromelysin, collagenase or gelatinase in 0.5 mL of buffer) is implanted either ip or sc (in the back) of a rat (Sprague-Dawley, 150-200g) or mouse (CD-1, 25-50g) under anesthesia. Drugs are administered PO, IP, SC or IV through a canula in the jugular vein. Drugs are administered in a dose volume of 0.1 to 0.25 mL/animal. Contents of the dialysis tubing is collected and enzyme activity assayed.
Enzyme reaction rates for each dialysis tube are calculated. Tubes from at least 3 different animals are used to calculate the mean± sem. Statistical significance (p<0.05) of vehicle-treated animals versus drug-treated animals is determined by analysis of variance. (Agents and Actions 21: 331, 1987)

[2] = target: T2, human recombinant fibroblast collagenase (Homo sapiens, UniProt P03956); assay: Collagenase inhibition in vitro (fluorogenic peptide substrate); assay type: biochemical
T2 construct: human recombinant fibroblast collagenase (truncated, mw 18,828, WAR, Radnor)
T2 sequence (P03956 100-269 limits assumed): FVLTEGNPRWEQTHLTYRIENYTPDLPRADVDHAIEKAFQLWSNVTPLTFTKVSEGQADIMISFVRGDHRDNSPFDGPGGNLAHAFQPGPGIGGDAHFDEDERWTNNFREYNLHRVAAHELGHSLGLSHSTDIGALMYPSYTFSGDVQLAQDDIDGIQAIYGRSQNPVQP
Procedure: The assay is based on the cleavage of a peptide substrate ((Dnp-Pro-Cha-Gly-Cys(Me)-His-Ala-Lys(NMa)-NH2), Peptide International, Inc.) by collagenase releasing the fluorescent NMa group which is quantitated on the fluorometer. Dnp quenches the NMa fluorescence in the intact substrate. The assay is run in HCBC assay buffer (50mM HEPES, pH 7.0, 5mM Ca^+2, 0.02% Brij, 0.5% cysteine), with human recombinant fibroblast collagenase (truncated, mw 18,828, WAR, Radnor). Substrate is dissolved in methanol and stored frozen in 1mM aliquots. Collagenase is stored frozen in buffer in 25 µM aliquots. For the assay, substrate is dissolved in HCBC buffer to a final concentration of 10 µM and collagenase to a final concentration of 5nM. Compounds are dissolved in methanol, DMSO, or HCBC. The methanol and DMSO are diluted in HCBC to <1%. Compounds are added to the 96 well plate containing enzyme and the reaction is started by the addition of substrate.
The reaction is read (excitation 340 nm, emission 444nm) for 10 minutes and the increase in fluorescence over time is plotted as a linear line. The slope of the line is calculated and represents the reaction rate.
The linearity of the reaction rate is confirmed (r^2>0.85). The mean of the control rate is calculated and compared for statistical significance (p<0.05) with drug-treated rates using Dunnett's multiple comparison test. Dose-response relationships can be generated using multiple doses of drug and IC50 values with 95% CI are estimated using linear regression (IPRED, HTB) (Bickett, D. M. et al., A High Throughput Fluorogenic Substrate For Interstitial Collagenase (MMP-1) and Gelatinase (MMP-9), Anal. Biochem. 212, 58-64 (1993)).

MMP stromelysin = MMP stromelysin (Homo sapiens, UniProt P08254); settings: WO 9407481; cited from earlier work
Sequence of MMP stromelysin (P08254 100-477): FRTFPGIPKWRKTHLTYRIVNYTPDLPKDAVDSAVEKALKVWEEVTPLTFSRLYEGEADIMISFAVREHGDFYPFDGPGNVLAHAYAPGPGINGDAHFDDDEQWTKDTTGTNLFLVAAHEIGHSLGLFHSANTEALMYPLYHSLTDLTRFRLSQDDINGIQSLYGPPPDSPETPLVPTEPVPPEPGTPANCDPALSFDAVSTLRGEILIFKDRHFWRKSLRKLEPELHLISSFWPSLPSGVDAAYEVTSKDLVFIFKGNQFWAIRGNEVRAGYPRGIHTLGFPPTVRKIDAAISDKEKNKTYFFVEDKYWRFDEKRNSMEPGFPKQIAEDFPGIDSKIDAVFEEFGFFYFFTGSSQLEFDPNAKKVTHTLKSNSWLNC

[3] = target: T3, human recombinant stromelysin (Homo sapiens, UniProt P08254); assay: Stromelysin inhibition in vitro (thiopeptide substrate, DTNB); assay type: biochemical
T3 construct: human recombinant stromelysin (truncated, Affymax); purchased Affymax
T3 sequence (P08254 100-272 limits assumed): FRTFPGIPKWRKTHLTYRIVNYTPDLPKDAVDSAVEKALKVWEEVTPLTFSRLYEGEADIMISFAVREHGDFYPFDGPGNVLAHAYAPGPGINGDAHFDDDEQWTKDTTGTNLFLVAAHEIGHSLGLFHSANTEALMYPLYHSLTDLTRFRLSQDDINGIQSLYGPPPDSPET
Procedure: The assay is based on the cleavage of the thiopeptide substrate ((Ac-Pro-Leu-Gly(2-mercapto-4-methylpentanoyl)Leu-Gly-OEt), Bachem Bioscience) by the enzyme stromelysin, releasing the substrate product which forms a colorimetric reaction with DTNB ((5,5'-dithiobis(2-nitrobenzoic acid)). The thiopeptide substrate is made up as a 20mM stock in 100% DMSO and stored frozen while the DTNB stock is dissolved in 100% DMSO and stored as a 100mM stock at room temperature. Both the substrate and DTNB are diluted to 1mM with assay buffer (50mM HEPES, pH 7.0, 5 mM CaCl2) before use. The stock of human recombinant stromelysin (truncated, Affymax) is diluted with assay buffer to a final concentration of 12.5 nM in the reaction.
The enzyme, DTNB, and substrate (10µM final concentration) with/without inhibitor (total reaction volume of 200µL) is added to a 96 well plate and then the increase in color is monitored spectrophotometrically for 5 minutes at 405 nanometers (nm) on a plate reader. The increase in OD405 is plotted and the slope of the line is calculated which represents the reaction rate.
The mean of the control rate is calculated and compared for statistical significance (p<0.05) with drug-treated rates using Dunnett's multiple comparison test. Dose-response relationships can be generated using multiple doses of drug and IC50 values with 95% Cl are estimated using linear regression (IPRED, HTB) (Weingarten and Feder, Spectrophometric Assay For Vertebrate Collagenase, Anal. Biochem 147, 437-440 (1985)).

T1 sequence (P14780 94-707): as the sequence (P14780 94-707) above

Row | Compound | in vivo % gelatinase inhibition (gelatinase; 50mpk (milligrams/kilogram)) | IC50 [2] | further results
1 | CNC(=O)[C@@H](NC(=O)[C@H](CC(C)C)C[C@@H](O)CS)C(C)(C)C [Example 39, (2R,4R)-4-Hydroxy-2-isobutyl-5-mercaptopentanoic acid ((1S)-2,2-dimethyl-1-methylcarbamoylpropyl)amide] | 20.4/50 mpk % | 228 nM | IC50 [1]: 106 nM
2 | CC(C)C[C@H](NC(=O)[C@@H](CS)CCc1ccccc1)C(=O)Nc1ccccc1 |  |  | inhibitor of the MMP stromelysin (MMP stromelysin): moderate
3 | CNC(=O)[C@@H](NC(=O)[C@H](CC(C)C)C[C@H](O)CS)C(C)(C)C [Example 40, (2R,4S)-4-Hydroxy-2-isobutyl-5-mercaptopentanoic acid ((1S)-2,2-dimethyl-1-methylcarbamoylpropyl)amide] | 84.8/50mpk % | 41 nM | IC50 [1]: 19 nM
4 | CCCCCCC[C@H](C[C@H](O)CS)C(=O)N[C@H](C(=O)NC)C(C)(C)C [Example 38, (2R)-2-((2S)-2-Hydroxy-3-mercaptopropyl)nonanoic acid ((1S)-2,2-dimethyl-1-methylcarbamoylpropyl)amide] | 22.2/50mpk % | 30 nM | 
5 | CNC(=O)[C@@H](NC(=O)[C@H](CC(C)C)C[C@@H](O)CSC(c1ccccc1)(c1ccccc1)c1ccccc1)C(C)(C)C [Example 35, (2R,4R)-4-Hydroxy-2-isobutyl-5-tritylsulfanylpentanoic acid ((1S)-2,2-dimethyl-1-methylcarbamoylpropyl)amide] | 0.44/50mpk % |  | inhibition at 1 µM [3]: 38%; inhibition at 1 µM ([2]; @1µM): 72%
6 | CCCCCCC[C@H](CC(=O)CS)C(=O)N[C@H](C(=O)NC)C(C)(C)C [Example 43, (2R)-2-(3-Mercapto-2-oxopropyl)nonanoic acid ((1S)-2,2-dimethyl-1-methylcarbamoylpropyl)amide] | 0.73/50mpk* % | 30 nM | IC50 [3]: 28 nM
7 | CNC(=O)[C@@H](NC(=O)[C@@H](CC(=O)CS)CC(C)C)C(C)(C)C [Example 44, (2R)-2-Isobutyl-5-mercapto-4-oxopentanoic acid ((1S)-2,2-dimethyl-1-methylcarbamoylpropyl)amide] |  | 38 nM | inhibition at 1 µM [3]: 58%; in vivo % gelatinase inhibition (gelatinase; 60mpk (milligrams/kilogram)): 4.8/60mpk %
